Structures are written as SMILES.

In this assay the test system is post PTCA vessels. In words: Clinical test: restenosis after elective PTCA in patients with angina pectoris (coronary angiography, video-densitometry). Format: in vivo. As for the experimental part: 29 patients suffering from angina pectoris who received elective PTCA (43 sites ) orally took 2-phenyl-1,2-benzoisoselenazol-3(2H )-one (hereinafterreferred to as compound A) after meal with a daily dose of 200 mg, twice a day, 100 mg for each time, starting from three days prior to the PTCA operation over 3 months after operation (treated group ). […] The stenosed degree was measured by video-densitometry (Reiber JHC et al., Circulation 1985; 71:280-288), and inhibition of restenosis was evaluated on the basis of the findings. […]
In both of the treated and control groups, calcium antagonists such as nifedipine and diltiazem, and antiarteriosclerotic agents such as elastase were concurrently administered as required. As a result, there was no significant difference according to the .chi.^2 test between the two groups with regard to the use of concomitant compounds and other patient characteristics including the age, the site of the lesion, etc.

With `O=c1c2ccccc2[se]n1-c1ccccc1` [compound A, 2-phenyl-1,2-benzoisoselenazol-3(2H)-one], for the setting “6 months after operation, treated group, 29 patients, control 38.2%”, the “onset rate of restenosis based on the number of patients” value was 18.6%. Besides, the “inhibition of restenosis in the location of operation” value (compared to the control group, Table 2) was “remarkable inhibition of restenosis”. In addition, the “Stenosed Degree Before PTCA” value (treated group, 43 sites, 100 mg twice a day orally from three days prior to PTCA, control 87 +/- 11) is given as 89 +/- 10. Also, the “Stenosed Degree 3 Months after PTCA” value (treated group, 43 sites, 100 mg twice a day orally, control 78 +/- 39, *P<0.05 vs Placebo, Chi square analysis) is on record as 54 +/- 31. For the same compound, for the setting “treated group, 43 sites, immediately after PTCA, 100 mg twice a day orally, control 32 +/- 23”, the “Stenosed Degree After PTCA” value is 35 +/- 28.
